Patent US8309558B2, “Compounds for the treatment of hepatitis C” (Bristol-Myers Squibb Company, priority 2008, dated 2012)
Where two headings read alike, the source gives them in different places.

Legend:
[1] = biological target: T1, HCV NS5B RdRp genotype 1b (Hepatitis C virus genotype 1b, UniProt Q9WMX2); assay: Standard HCV NS5B RdRp enzyme assay; assay type: biochemical; conditions: HCV NS5B RdRp genotype 1b, read-out: IC50
T1 construct: The protein was expressed with an 18 amino acid C-terminal truncation to enhance the solubility; made in house; host or cells: E. coli BL21(DE3), pET21a vector
T1 sequence (Q9WMX2 2420-2992): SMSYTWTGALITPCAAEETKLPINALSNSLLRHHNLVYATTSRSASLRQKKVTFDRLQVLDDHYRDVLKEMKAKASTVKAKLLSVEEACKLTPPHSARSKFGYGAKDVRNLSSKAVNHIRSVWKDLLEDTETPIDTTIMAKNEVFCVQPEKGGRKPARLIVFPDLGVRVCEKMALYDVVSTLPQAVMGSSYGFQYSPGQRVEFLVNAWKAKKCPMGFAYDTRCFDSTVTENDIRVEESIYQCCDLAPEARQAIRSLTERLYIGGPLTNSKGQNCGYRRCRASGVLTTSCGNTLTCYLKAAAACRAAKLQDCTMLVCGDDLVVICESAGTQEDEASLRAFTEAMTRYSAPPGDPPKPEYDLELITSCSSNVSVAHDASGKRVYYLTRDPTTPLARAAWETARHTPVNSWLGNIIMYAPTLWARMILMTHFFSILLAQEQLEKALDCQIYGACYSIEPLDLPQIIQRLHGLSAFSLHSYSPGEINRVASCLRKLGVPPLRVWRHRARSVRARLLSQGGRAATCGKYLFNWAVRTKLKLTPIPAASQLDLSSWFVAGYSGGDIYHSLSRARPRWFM
Protocol: HCV NS5B RdRp cloning, expression, and purification. The cDNA encoding the NS5B protein of HCV, genotype 1b, was cloned into the pET21a expression vector. The protein was expressed with an 18 amino acid C-terminal truncation to enhance the solubility. The E. coli competent cell line BL21(DE3) was used for expression of the protein. Cultures were grown at 37° C. for ˜4 hours until the cultures reached an optical density of 2.0 at 600 nm. The cultures were cooled to 20° C. and induced with 1 mM IPTG. Fresh ampicillin was added to a final concentration of 50 μg/ml and the cells were grown overnight at 20° C.
Cell pellets (3 L) were lysed for purification to yield 15-24 mgs of purified NS5B. The lysis buffer consisted of 20 mM Tris-HCl, pH 7.4, 500 mM NaCl, 0.5% triton X-100, 1 mM DTT, 1 mM EDTA, 20% glycerol, 0.5 mg/ml lysozyme, 10 mM MgCl2, 15 ug/ml deoxyribonuclease I, and Complete TM protease inhibitor tablets (Roche). After addition of the lysis buffer, frozen cell pellets were resuspended using a tissue homogenizer. To reduce the viscosity of the sample, aliquots of the lysate were sonicated on ice using a microtip attached to a Branson sonicator. The sonicated lysate was centrifuged at 100,000×g for 1 hr at 4° C. and filtered through a 0.2 μm filter unit (Corning).
The protein was purified using three sequential chromatography steps: Heparin sepharose CL-6B, polyU sepharose 4B, and Hitrap SP sepharose (Pharmacia). The chromatography buffers were identical to the lysis buffer but contained no lysozyme, deoxyribonuclease I, MgC12 or protease inhibitor and the NaCl concentration of the buffer was adjusted according to the requirements for charging the protein onto the column. Each column was eluted with a NaCl gradient which varied in length from 5-50 column volumes depending on the column type. After the final chromatography step, the resulting purity of the enzyme is >90% based on SDS-PAGE analysis. The enzyme was aliquoted and stored at −80° C.
Standard HCV NS5B RdRp enzyme assay. HCV RdRp genotype 1b assays were run in a final volume of 60 μl in 96 well plates (Costar 3912). The assay buffer composed of 20 mM Hepes, pH 7.5, 2.5 mM KCl, 2.5 mM MgCl2, 1 mM DTT, 1.6 U RNAse inhibitor (Promega N2515), 0.1 mg/ml BSA (Promega R3961), and 2% glycerol. All compounds were serially diluted (3-fold) in DMSO and diluted further in water such that the final concentration of DMSO in the assay was 2%. HCV RdRp genotype 1b enzyme was used at a final concentration of 28 nM. A polyA template was used at 6 nM, and a biotinylated oligo-dT12 primer was used at 180 nM final concentration. Template was obtained commercially (Amersham 27-4110). Biotinylated primer was prepared by Sigma Genosys. 3H-UTP was used at 0.6 μCi (0.29 μM total UTP). Reactions were initiated by the addition of enzyme, incubated at 30° C. for 60 min, and stopped by adding 25 μl of 50 mM EDTA containing SPA beads (4 μg/μl, Amersham RPNQ 0007). Plates were read on a Packard Top Count NXT after >1 hr incubation at room temperature.
IC50 values for compounds were determined using seven different [I]. IC50 values were calculated from the inhibition using the formula y=A+((B−A)/(1+((C/x)^D))).

HCV replicon cells = assay: HCV replicon FRET / luciferase assay (96-well plates); assay type: cell-based; conditions: Hepatitis C virus, HCV replicon, read-out: EC50
Summary of the method: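 Percent activity is background-subtracted signal relative to untreated cell wells, with background taken from maximal protease-inhibitor wells. Cytotoxicity is Alamar blue fluorescence relative to controls. Replicon inhibition was read by NS3 FRET peptide cleavage (340/490 nm) or luciferase.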

[2] = untitled table after Table 1b, values without asterisk

SMILES | IC50 ([1]; Table 1b) | EC50 (HCV replicon cells; Table 1b) | IC50 ([1]; Table 1a) | EC50 (HCV replicon cells; Table 1a) | also measured
CCC[C@H](CO)NC(=O)c1cccc(-c2ccc3oc(-c4ccc(F)cc4)c(C(=O)NC)c3c2)c1 [drawing 617] |  |  |  |  | IC50 ([1]; untitled table after Table 1b): 1.15 µM; EC50 (HCV replicon cells; [2]): 1.39 µM
CNC(=O)c1c(-c2ccc(F)cc2)oc2ccc(-c3cc(C(=O)NCC(C)C)ccc3OCCC(N)=O)cc12 | > 10 µM | > 10 µM |  |  | 
CNC(=O)c1c(-c2ccc(F)cc2)oc2ccc(-c3cc(C(=O)NC4(c5ccccn5)CC4)c(OCC4CC4)cc3C)cc12 |  |  |  |  | IC50 ([1]; Table 1d (class symbols)): 0.001 to 0.25 µM; EC50 (HCV replicon cells; 24 h, Table 1d (class symbols)): 0.001 to 0.25 µM
CNC(=O)c1c(-c2ccc(F)cc2)oc2ccc(-c3cc(C(=O)NCC(C)C)ccc3OCCCN3CCN(C)CC3)cc12 | < 0.25 µM | < 0.25 µM |  |  | 
CNC(=O)c1c(-c2ccc(F)cc2)oc2ccc(-c3cc(C(=O)NCC(C)C)ccc3OCCCN)cc12 | < 0.25 µM | < 0.25 µM |  |  | 
CNC(=O)c1c(-c2ccc(F)cc2)oc2ccc(-c3cccc(C(=O)NC4CCCCC4)c3)cc12 |  |  | < 0.25 µM | < 0.25 µM | 
CNC(=O)c1c(-c2ccc(F)cc2)oc2ccc(-c3cccc(C(=O)N[C@@H](CO)C(C)C)c3)cc12 [drawing 235] |  |  | 0.25 to 1 µM | 1 to 10 µM | 
CNC(=O)c1c(-c2ccc(F)cc2)oc2cc(N(CCO)S(C)(=O)=O)c(-c3cccc(C(=O)NC4(c5ccc(F)cc5)CC4)c3)cc12 | < 0.25 µM | < 0.25 µM |  |  | 
CNC(=O)c1c(-c2ccc(F)cc2)oc2ccc(-c3cc(C(=O)NCC(C)C)ccc3O)cc12 |  |  | < 0.25 µM | < 0.25 µM | 
CNC(=O)c1c(-c2ccc(F)cc2)oc2ccc(-c3cc(C(=O)NCC(C)C)ccc3OCC3CCCN3C(=O)OC(C)(C)C)cc12 (stereo not drawn) | > 10 µM | 1 to 10 µM |  |  | 
CNC(=O)c1c(-c2ccc(F)cc2)oc2cc([N+](=O)[O-])c(-c3cc(C(=O)NC4(c5ccccc5)CC4)ccc3F)cc12 | < 0.25 µM | < 0.25 µM |  |  | 
CNC(=O)c1c(-c2ccc(F)cc2)oc2cc(N(CCO)S(C)(=O)=O)c(-c3cc(C(=O)NC4(c5ccccc5)CC4)ccc3C)cc12 | < 0.25 µM | < 0.25 µM |  |  | 
CNC(=O)c1c(-c2ccc(F)cc2)oc2ccc(-c3ccc(-c4cccc(OC)c4F)c(C(=O)NCC(C)C)c3)cc12 | > 10 µM | 0.25 to 1 µM |  |  | 
CNC(=O)c1c(-c2ccc(F)cc2)oc2ccc(-c3cc(NC(=O)OC(C)(C)C)cc(C(=O)NCC(C)C)c3)cc12 | 0.25 to 1 µM | < 0.25 µM |  |  | 
CNC(=O)c1c(-c2ccc(F)cc2)oc2ccc(-c3cc(C(=O)NC4(c5ccccn5)CC4)ccc3OCC(N)=O)cc12 | < 0.25 µM | < 0.25 µM |  |  | 
CNC(=O)c1c(-c2ccc(F)cc2)oc2ccc(-c3cccc(C(=O)N4CCCC4c4ccccn4)c3)cc12 (stereo not drawn) |  |  | 0.25 to 1 µM | 0.25 to 1 µM | 
CNC(=O)c1c(-c2ccc(F)cc2)oc2ccc(-c3cccc(C(=O)N4CC(C)OC(C)C4)c3)cc12 (stereo not drawn) |  |  | 1 to 10 µM | 1 to 10 µM | 
CNC(=O)c1c(-c2ccc(F)cc2)oc2ccc(-c3cc(C(=O)NC4(c5nc(C)no5)CC4)c(OC)cc3Cl)cc12 | < 0.25 µM | < 0.25 µM |  |  | 
CCCOc1ccc(C(=O)NCC(C)C)cc1-c1ccc2oc(-c3ccc(F)cc3)c(C(=O)NC)c2c1 | 1 to 10 µM | 0.25 to 1 µM |  |  | 
CCCC[C@H](CO)NC(=O)c1cccc(-c2ccc3oc(-c4ccc(F)cc4)c(C(=O)NC)c3c2)c1 [drawing 232] |  |  | 0.25 to 1 µM | 1 to 10 µM | 
CNC(=O)c1c(-c2ccc(F)cc2)oc2ccc(-c3cc(C(=O)NC4(c5ccn(C)n5)CC4)ccc3C)cc12 | < 0.02 µM | < 0.25 µM |  |  | 
CNC(=O)c1c(-c2ccc(F)cc2)oc2cc(N)c(-c3cccc(C(=O)NC4(c5ccccc5)CC4)c3)cc12 |  |  | < 0.25 µM | < 0.25 µM | 
CNC(=O)c1c(-c2ccc(F)cc2)oc2ccc(-c3cc(C(=O)NCC(C)C)ccc3OCc3c[nH]cn3)cc12 | < 0.25 µM | < 0.25 µM |  |  | 

SMILES | IC50 ([1]; Table 1b) | EC50 (HCV replicon cells; Table 1b) | IC50 ([1]; Table 1a) | EC50 (HCV replicon cells; Table 1a) | also measured
CNC(=O)c1c(-c2ccc(F)cc2)oc2ccc(-c3cc(C(=O)NC(C)(C)C4CC4)ccc3C)cc12 | < 0.25 µM | < 0.25 µM |  |  | 
CNC(=O)c1c(-c2ccc(F)cc2)oc2ccc(-c3cc(C(=O)O)ccc3Cl)cc12 |  |  | 1 to 10 µM | > 10 µM | 
CNC(=O)c1c(-c2ccccc2)oc2ccc(-c3cc(C(=O)NC4(c5nc(-c6ccccn6)no5)CC4)ccc3C)cc12 | < 0.25 µM | < 0.25 µM |  |  | 
CNC(=O)c1c(-c2ccc(F)cc2)oc2ccc(-c3cccc(C(=O)N4CCCC(C)C4)c3)cc12 (stereo not drawn) |  |  | 1 to 10 µM | 1 to 10 µM | 
CNC(=O)c1c(-c2ccc(F)cc2)oc2ccc(-c3cccc(C(=O)Nc4ccccc4O)c3)cc12 |  |  | < 0.25 µM | < 0.25 µM | 
CCCC#CCOc1ccc(C(=O)NCC(C)C)cc1-c1ccc2oc(-c3ccc(F)cc3)c(C(=O)NC)c2c1 | 1 to 10 µM | 1 to 10 µM |  |  | 
CNC(=O)c1c(-c2ccc(F)cc2)oc2ccc(-c3ccc(-c4ccccc4COC)c(C(=O)NCC(C)C)c3)cc12 | 0.25 to 1 µM | < 0.25 µM |  |  | 
CCOC(=O)CC(C)NC(=O)c1cccc(-c2ccc3oc(-c4ccc(F)cc4)c(C(=O)NC)c3c2)c1 (stereo not drawn) |  |  | < 0.25 µM | 0.25 to 1 µM | 
CNC(=O)c1c(-c2ccc(F)cc2)oc2ccc(-c3cc(C(=O)NC4(c5ncccn5)CC4)c(C)cc3C)c(F)c12 | 0.25 to 1 µM | < 0.25 µM |  |  | 
CNC(=O)c1c(-c2ccc(F)cc2)oc2ccc(-c3cc(C(=O)NC4(c5ccccc5)CC4)ccc3OC)cc12 [drawing 604] |  |  |  |  | IC50 ([1]; untitled table after Table 1b): 0.00995 µM; EC50 (HCV replicon cells; [2]): 0.00178 µM
CNC(=O)c1c(-c2ccc(F)cc2)oc2ccc(-c3cc(C(=O)NC4(c5nnc(-c6cccnc6)[nH]5)CC4)ccc3C)cc12 | < 0.25 µM | < 0.25 µM |  |  | 
CNC(=O)c1c(-c2ccc(F)cc2)oc2ccc(-c3cc(C(=O)NC4(c5ccccn5)CC4)c(OC)cc3C)cc12 | < 0.25 µM | < 0.25 µM |  |  | 
CNC(=O)c1c(-c2ccc(F)cc2)oc2ccc(-c3cccc(C(=O)N[C@H]4C[C@@H]4c4ccccc4)c3)cc12 |  |  | > 0.4 µM | < 0.25 µM | 
CNC(=O)c1c(-c2ccc(F)cc2)oc2ccc(-c3cc(C(=O)NC4(c5ccccc5Cl)CC4)ccc3Cl)cc12 | 0.25 to 1 µM | < 0.25 µM |  |  | 
CNC(=O)c1c(-c2ccc(F)cc2)oc2ccc(-c3cccc(C(=O)N[C@@H](C)C(=O)NC)c3)cc12 |  |  | 0.25 to 1 µM | 1 to 10 µM | 
CNC(=O)c1c(-c2ccc(F)cc2)oc2ccc(-c3cccc(C(=O)NCC4CC4)c3)cc12 |  |  | < 0.25 µM | < 0.25 µM | 
CNC(=O)c1c(-c2ccc(C)cc2)oc2ccc(-c3cc(C(=O)NC4(c5nc(COC)no5)CC4)ccc3C)cc12 | < 0.25 µM | < 0.25 µM |  |  | 
CNC(=O)c1c(-c2ccc(F)cc2)oc2ccc(-c3ccc(O)c(C(=O)NCC(C)C)c3)cc12 | 1 to 10 µM | > 10 µM |  |  | 
CCN(Cc1ccncc1)C(=O)c1ccc(-c2ccc3oc(-c4ccc(F)cc4)c(C(=O)NC)c3c2)cc1 |  |  | > 10 µM | 1 to 10 µM | 
CNC(=O)c1c(-c2ccc(F)cc2)oc2ccc(-c3ccccn3)cc12 |  |  | 1 to 10 µM | 0.25 to 1 µM | 
CNC(=O)c1c(-c2ccc(F)cc2)oc2ccc(-c3cc(C(=O)NCC(C)C)ccc3OCCC3CCCCN3)cc12 (stereo not drawn) | < 0.25 µM | < 0.25 µM |  |  | 
CNC(=O)c1c(-c2ccc(F)cc2)oc2ccc(-c3cc(C(=O)NC4(C#N)CC4)ccc3C)cc12 | < 0.25 µM | < 0.25 µM |  |  | 
